Data set [1] relates to male Wistar rats. Put plainly: Reperfusion injury after left myocardial ischemia (35 min LAD occlusion) in the rat, echocardiography. Format: in vivo. Details: EDV (end-diastolic volume), single animals / ESV (end-systolic volume), single animals / EDV (end-diastolic volume), group mean (unlabelled last line of group) / ESV (end-systolic volume), group mean (unlabelled last line of group): unit not given here. The conditions noted are these: for EDV (end-diastolic volume), single animals / EF (ejection fraction), single animals / ESV (end-systolic volume), single animals: 60 min i.v. infusion after 35 min occlusion.

The test system of data set [2] is anaesthetized rats. Put plainly: Carotid blood flow (CaBF) in anaesthetized rats, continuous i.v. infusion. Format: in vivo, rat. How it is done: The study was conducted on 7 week old male Wistar rats weighing 250-300 g. Rats were anaesthetized with Inactin 100 mg/kg i.p. Inactin was preferred to other anaesthetics because of its moderate impact on blood pressure. Heparin-filled (100 IU/ml in saline) catheters were introduced into the left common carotid artery and into the left jugular vein for measurement of blood pressure and drug administration respectively. A flow probe was inserted around the right carotid artery for measurement of carotid blood flow (CaBF).
In a first series of experiments, adenosine was administered as a single agent to identify the dose providing maximal increase in carotid arterial blood flow (“adenosine max”). In this experiment, various concentrations of adenosine were infused continuously through the jugular vein catheter for 5 minutes, with concurrent measurement of carotid arterial blood flow.
A second series of experiments was performed to assess whether inosine could potentiate the effects on CaBF of a continuous intravenous infusion of adenosine at half adenosine max.
In each experiment, the effect on CaBF of (i) adenosine as a single agent, infused continuously for five minutes at adenosine max (0.1 mg/kg/min), (ii) adenosine as single agent infused continuously for five minutes at half adenosine max (0.05 mg/kg/min), and (iii) a composition containing a fixed dose of adenosine at half adenosine max (0.05 mg/kg/min) combined with inosine infused continuously for five minutes, was assessed. In separate experiments, inosine was included in the combined (“BIDOSINE”) composition in amounts required to achieve infusion at 0.1 mg/kg/min (A:I weight ratio of 1:2, FIG. 2A), 0.15 mg/kg/min (A:I weight ratio of 1:3, FIG. 2B), 0.2 mg/kg/min (A:I weight ratio of 1:4, FIG. 2C), and 0.25 mg/kg/min (A:I weight ratio of 1:5, FIG. 2D).

The subject of data set [3] is human patients. The following applies: cited from earlier work.
Data set [4] can be described thus: Maximal solubility in nonpyrogenic fluid suitable for parenteral infusion. The conditions noted are these: adenosine and inosine combined in a nonpyrogenic fluid suitable for parenteral infusion. Format: physicochemical. Here is the method: Combined in a nonpyrogenic, fluid suitable for parenteral infusion, maximal adenosine solubility is about 4 mg/ml and that of inosine 20 mg/ml. Concentrations approaching one or both of these maxima are convenient for unit dosage forms intended for long infusion times, since high concentrations of the nucleoside actives reduce the volume required to be infused. Typical embodiments include, for example, 250 ml containers (vials, etc.) containing 1,000 mg of adenosine with 100 mg, 1,000 mg, 2,000 mg, or even 3,000 mg, 4,000 mg, 5,000 mg, even 6,000 mg of inosine, with intermediate inosine amounts permissible.

Broadly, the solubility is the concentration that dissolves in the medium under given conditions.

“And” between values parts separate entries of the source, which are not always exact repeats. Equal entries are not always repeated.

With `Nc1ncnc2c1ncn2[C@@H]1O[C@H](CO)[C@@H](O)[C@H]1O` [adenosine], in data set [1] (Post-operative day 2), the “EDV (end-diastolic volume), group mean (unlabelled last line of group)” value is on record as 0.40; the “EF (ejection fraction), group mean (unlabelled last line of group)” value is 0.60; the “ESV (end-systolic volume), group mean (unlabelled last line of group)” value is given as 0.16; the “EDV (end-diastolic volume), single animals” value was 0.41 and 0.35 and 0.37 and 0.48. In data set [1] (Post-operative day 2), the “EF (ejection fraction), single animals” value is 0.67 and 0.64 and 0.60 and 0.49; the “ESV (end-systolic volume), single animals” value was 0.14 and 0.13 and 0.15 and 0.24. Further, in data set [1] (Post-operative day 30), the “EDV (end-diastolic volume), group mean (unlabelled last line of group)” value is given as 0.38; the “EF (ejection fraction), group mean (unlabelled last line of group)” value was 0.59; the “ESV (end-systolic volume), group mean (unlabelled last line of group)” value stood at 0.20; the “EDV (end-diastolic volume), single animals” value was 0.44 and 0.42 and 0.33 and 0.36. Besides, in data set [1] (Post-operative day 30), the “EF (ejection fraction), single animals” value was 0.61 and 0.32 and 0.65 and 0.44; the “ESV (end-systolic volume), single animals” value is 0.17 and 0.29 and 0.12 and 0.20. The ejection fraction in data set [1] (day 30, adenosine 0.1 mg/kg/min or adenosine 0.05 + inosine 0.25 mg/kg/min) was found to be 59%. For the same compound, the “adenosine dose providing maximal CaBF as a single agent (adenosine max)” value in data set [2] (5 min continuous i.v. infusion, 0.01-1 mg/kg/min tested) came out at 0.1 mg/kg/min. Further, the “increase in CaBF, percentage variation from baseline” value in data set [2] (6 min continuous i.v. infusion, adenosine 0.05 mg/kg/min, inosine 0.2 mg/kg/min, alone or combined (A:I 1:4), Mean±SEM, n=6) is recorded as 7±4%. Besides, the side effects result in data set [3] (continuous intravenous infusion 140 μg/kg/min for 6 minutes) is on record as “frequent side effects”. Further, the adverse reactions result in data set [3] (dosage of 70 μg/kg/min or less) was “very few and of mild intensity”. Moreover, the solubility in data set [4] is around 4000 µg/mL.

(Values after US20080056993A1, “Compositions, Methods and Kits Using Adenosine and Inosine in Combination for Diagnosis and Treatment” (ADENOBIO N.V., priority 2006, published 2008).)
